Target: ABL (Homo sapiens, UniProt P00519)
Experiment: ABL tyrosine kinase inhibition, off-chip incubation mobility-shift kinase assay (Caliper LABCHIP 3000)
Settings: for IC50: ABL, ATP at Km 14 μM, unit inferred; for ABL AVG % Activity at Specific Concentration: average of replicate wells
[1] = at 1.0E−09 (concentration unit not given)
[2] = at 1.0E−10 (concentration unit not given)
[3] = at 1.0E−11 (concentration unit not given)
[4] = at 3.0E−09 (concentration unit not given)
[5] = at 3.0E−10 (concentration unit not given)
[6] = at 3.0E−11 (concentration unit not given)

ABL, sequence (P00519 whole entry): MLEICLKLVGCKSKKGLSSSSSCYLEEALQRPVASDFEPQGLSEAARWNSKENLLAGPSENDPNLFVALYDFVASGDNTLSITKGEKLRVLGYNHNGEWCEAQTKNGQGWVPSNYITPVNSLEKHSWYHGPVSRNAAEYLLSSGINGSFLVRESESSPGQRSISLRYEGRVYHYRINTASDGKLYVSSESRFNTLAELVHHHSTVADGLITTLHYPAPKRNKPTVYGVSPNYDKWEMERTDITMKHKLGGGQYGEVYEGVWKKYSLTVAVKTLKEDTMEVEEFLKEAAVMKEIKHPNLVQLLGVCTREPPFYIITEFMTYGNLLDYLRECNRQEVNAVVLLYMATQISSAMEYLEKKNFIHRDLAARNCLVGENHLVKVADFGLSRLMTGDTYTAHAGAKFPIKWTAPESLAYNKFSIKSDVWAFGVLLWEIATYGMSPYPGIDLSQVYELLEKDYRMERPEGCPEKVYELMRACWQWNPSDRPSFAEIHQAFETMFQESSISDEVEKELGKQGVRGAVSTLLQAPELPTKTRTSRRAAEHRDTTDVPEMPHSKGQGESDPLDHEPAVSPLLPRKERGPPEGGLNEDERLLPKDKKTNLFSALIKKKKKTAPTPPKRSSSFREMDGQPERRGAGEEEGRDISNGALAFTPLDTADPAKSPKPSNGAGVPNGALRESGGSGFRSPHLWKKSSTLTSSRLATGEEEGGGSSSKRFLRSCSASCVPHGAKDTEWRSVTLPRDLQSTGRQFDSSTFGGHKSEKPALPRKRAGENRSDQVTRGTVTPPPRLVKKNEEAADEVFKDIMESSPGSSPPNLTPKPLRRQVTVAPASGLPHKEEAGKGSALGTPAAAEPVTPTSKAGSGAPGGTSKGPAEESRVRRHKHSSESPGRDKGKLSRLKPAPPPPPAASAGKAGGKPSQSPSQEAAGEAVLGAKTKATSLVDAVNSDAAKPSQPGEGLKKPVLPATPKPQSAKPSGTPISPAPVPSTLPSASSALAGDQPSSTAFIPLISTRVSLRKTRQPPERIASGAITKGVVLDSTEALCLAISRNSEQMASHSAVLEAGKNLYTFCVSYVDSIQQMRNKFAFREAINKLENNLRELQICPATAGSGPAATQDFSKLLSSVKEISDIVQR

| SMILES | IC50 [nM] | ABL AVG % Activity at Specific Concentration [1] [%] | ABL AVG % Activity at Specific Concentration [2] [%] | ABL AVG % Activity at Specific Concentration [3] [%] | ABL AVG % Activity at Specific Concentration [4] [%] | ABL AVG % Activity at Specific Concentration [5] [%] | ABL AVG % Activity at Specific Concentration [6] [%] |
| --- | --- | --- | --- | --- | --- | --- | --- |
| COCCOCCOCCOCC(=O)OCCN1CCN(c2cc(Nc3ncc(C(=O)Nc4c(C)cccc4Cl)s3)nc(C)n2)CC1 [mPEG3-COO-Dasatinib] | 0.29 | 2 | 80 | 98 | −1 | 44 | 92 |
| COCCOCCOCCOCC(=O)NC(CC(C)C)C(=O)OCCN1CCN(c2cc(Nc3ncc(C(=O)Nc4c(C)cccc4Cl)s3)nc(C)n2)CC1 (centres unmarked) [mPEG3-Leu-Dasatinib] | 0.43 | 14 | 85 | 99 | 1 | 62 | 97 |
| COCCOCCOCCOCC(=O)N[C@H](C(=O)OCCN1CCN(c2cc(Nc3ncc(C(=O)Nc4c(C)cccc4Cl)s3)nc(C)n2)CC1)C(C)C [mPEG3-Val-Dasatinib] | 0.37 | 10 | 85 | 98 | 0 | 54 | 95 |
| COCCOCCOCCOCCOCCNC(=O)OCCN1CCN(c2cc(Nc3ncc(C(=O)Nc4c(C)cccc4Cl)s3)nc(C)n2)CC1 [mPEG5-NHCOO-Dasatinib] | 0.3 | 4 | 80 | 97 | −1 | 45 | 94 |
| COCCOCCOCCOCCOCCOCCOCCOCCOCCNC(=O)OCCN1CCN(c2cc(Nc3ncc(C(=O)Nc4c(C)cccc4Cl)s3)nc(C)n2)CC1 [mPEG9-NHCOO-Dasatinib] | 0.31 | 4 | 80 | 97 | −1 | 47 | 92 |

— US9084828B2, “Oligomer-protein tyrosine kinase inhibitor conjugates” (Nektar Therapeutics, priority 2009, dated 2015)
